Experimental data reported in PMC11879040, “Advancing systemic toxicity risk assessment: Evaluation of a NAM-based toolbox approach” (Toxicological Sciences, 2024).
Read-outs that look alike come from different tables or passages of the source. Peptide text beside a SMILES is read from it.

Columns and labels:
HepG2 cells [1] = experiment: High-throughput transcriptomics (HTTr, TempO-Seq), HepG2, 24 h; assay type: cell-based, human; details: HepG2; for pod_httr_bifrost PoD: HTTr BIFROST PoD; for podl_path_minbmd PoD: HTTr minimum pathway BMD(L)
Experimental: (§1) HepG2, HepaRG, and MCF7 cells were treated with each compound for 24 h across a dose range of 7 concentrations and lysed using TempO-Seq lysis buffer (BioSpyder Technologies, proprietary kit, see [Middleton et al. 2022] for method details). Sequencing was performed using TempO-Seq (BioClavis) version 2 of the human whole transcriptome panel and analyzed as described previously in Middleton et al.

[2] = tested on: Thyroid hormone receptor alpha, THRA (h); experiment: IPP THRA coactivator recruitment (agonist); assay type: biochemical, human; details: agonist, T3
[3] = tested on: Potassium Voltage-Gated Channel Kv non-selective, KCNQ1 (r); experiment: IPP KCNQ1 binding (antagonist radioligand); design: species or system rat; details: control α-dendrotoxin
[4] = biological target: T1, Estrogen receptor, ER1 (h) (Homo sapiens, UniProt P03372); experiment: IPP ER1 coactivator recruitment (antagonist); assay type: biochemical; details: estriol
T1 construct: purchased Eurofins Cerep (SafetyScreen44-based IPP panel)
T1 sequence (P03372 1-595): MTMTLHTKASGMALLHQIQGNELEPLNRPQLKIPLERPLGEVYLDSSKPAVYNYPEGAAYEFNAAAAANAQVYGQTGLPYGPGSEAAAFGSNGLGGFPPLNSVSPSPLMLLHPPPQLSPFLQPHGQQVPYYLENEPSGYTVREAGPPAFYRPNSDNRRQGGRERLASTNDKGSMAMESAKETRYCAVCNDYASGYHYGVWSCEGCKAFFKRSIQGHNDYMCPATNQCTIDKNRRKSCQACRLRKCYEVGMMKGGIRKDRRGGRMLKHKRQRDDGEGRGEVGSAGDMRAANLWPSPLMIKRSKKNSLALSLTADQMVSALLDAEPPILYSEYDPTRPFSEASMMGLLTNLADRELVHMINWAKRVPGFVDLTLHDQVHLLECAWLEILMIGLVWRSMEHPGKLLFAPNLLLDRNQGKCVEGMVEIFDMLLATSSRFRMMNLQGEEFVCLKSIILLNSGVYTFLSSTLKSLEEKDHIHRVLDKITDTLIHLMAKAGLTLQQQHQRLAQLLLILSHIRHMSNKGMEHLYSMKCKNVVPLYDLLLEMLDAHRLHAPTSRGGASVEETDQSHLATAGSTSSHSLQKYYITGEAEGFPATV

[5] = tested on: Glutamate receptor ionotropic NMDA 1 non-selective, GRIN1 (r); details: control CGS 19755
HepaRG cells = experiment: High-throughput transcriptomics (HTTr, TempO-Seq), HepaRG, 24 h; assay type: cell-based, human; details: HepaRG; for pod_httr_bifrost PoD: HTTr BIFROST PoD; for podl_path_minbmd PoD: HTTr minimum pathway BMD(L)
Experimental: as §1

[6] = biological target: T2, Pregnane X receptor PXR, NR1I2 (h) (Homo sapiens, UniProt O75469); experiment: IPP PXR coactivator recruitment (antagonist); details: ligand T0901317
T2 sequence (O75469 1-434): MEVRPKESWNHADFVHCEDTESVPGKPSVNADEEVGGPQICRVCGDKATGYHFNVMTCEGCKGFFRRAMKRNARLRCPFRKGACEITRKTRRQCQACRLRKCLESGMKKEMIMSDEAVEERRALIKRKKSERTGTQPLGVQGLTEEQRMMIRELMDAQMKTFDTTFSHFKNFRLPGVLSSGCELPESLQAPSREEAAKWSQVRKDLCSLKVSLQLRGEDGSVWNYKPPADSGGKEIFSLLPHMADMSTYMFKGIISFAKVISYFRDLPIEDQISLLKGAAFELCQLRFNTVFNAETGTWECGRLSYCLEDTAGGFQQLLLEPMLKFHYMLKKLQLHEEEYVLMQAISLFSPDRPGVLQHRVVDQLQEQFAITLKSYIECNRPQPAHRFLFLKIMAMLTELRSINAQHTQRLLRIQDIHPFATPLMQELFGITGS

[7] = tested on: Gamma-aminobutyric acid receptor subunit alpha-1 BZD site, GABRA1A (r); assay type: binding, rat; details: control diazepam
[8] = biological target: T1, Estrogen receptor, ER1 (h); experiment: IPP ER1 coactivator recruitment (agonist); assay type: biochemical; details: estriol
[9] = biological target: T2, Pregnane X receptor PXR, NR1I2 (h); experiment: IPP PXR coactivator recruitment (agonist); details: T0901317 for control
HepG2 cells [10] = experiment: Cell stress panel (CSP), 24 h, 8 concentrations, BIFROST global PoD; assay type: cell-based; details: for pod_cell_stress PoD: HepG2, cell stress panel PoD
Experimental: Compounds were tested using the previously developed cell stress panel ([Hatherell et al. 2020]) and the expanded biomarker panel outlined in Middleton et al. HepG2 cells were treated with all compounds for 24 h across 8 concentrations prior to biomarker analysis. The same plate layout and number of replicates (3 biological and 2 technical) were used as previously for each assay within the panel.

rat = details: rat, cited from earlier work; for PoD (NOAEL): ref ToxRefDB/Paul-Friedman et al. (2020)/regulatory opinions
Tubulin (r) = experiment: IPP Tubulin binding; design: species or system rat; details: ligand/control Colchicine
[11] = PBK level L2; taken or scaled from references (median where several); ref [6],[7],[10],[19]; cited from earlier work
MCF7 cells = experiment: High-throughput transcriptomics (HTTr, TempO-Seq), MCF7, 24 h; assay type: cell-based, human; details: MCF-7; for pod_httr_bifrost PoD: HTTr BIFROST PoD; for podl_path_minbmd PoD: HTTr minimum pathway BMD(L)
Experimental: as §1

[12] = tested on: Sodium channel protein type 5 subunit alpha (site 2), SCN5A (r); assay type: binding, rat; details: control veratridine
[13] = biological target: T3, Adenosine receptor A2a, ADORA2A (h) (Homo sapiens, UniProt P29274); experiment: IPP ADORA2A binding (agonist radioligand); details: control NECA
T3 construct: purchased Eurofins Cerep (SafetyScreen44-based IPP panel)
T3 sequence (P29274 whole entry): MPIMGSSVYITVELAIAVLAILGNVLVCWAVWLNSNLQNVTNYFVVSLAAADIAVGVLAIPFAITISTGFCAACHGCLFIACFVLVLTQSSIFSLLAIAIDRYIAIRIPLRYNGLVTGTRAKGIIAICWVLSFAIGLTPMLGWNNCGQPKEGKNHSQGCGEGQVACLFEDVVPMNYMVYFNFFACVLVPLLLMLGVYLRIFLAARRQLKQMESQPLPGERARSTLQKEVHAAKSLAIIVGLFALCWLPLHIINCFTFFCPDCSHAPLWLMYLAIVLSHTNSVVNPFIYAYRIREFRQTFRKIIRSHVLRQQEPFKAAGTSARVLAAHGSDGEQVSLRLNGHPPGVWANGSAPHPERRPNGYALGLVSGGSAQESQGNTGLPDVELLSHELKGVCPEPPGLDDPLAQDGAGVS

[14] = biological target: Potassium voltage-gated channel subfamily H member 2 hERG, KCNH2 (h) (Homo sapiens, UniProt Q12809); details: [3H] Dofetilide, control Terfenadine
Chain of Potassium voltage-gated channel subfamily H member 2 hERG, KCNH2 (h) (Q12809 whole entry): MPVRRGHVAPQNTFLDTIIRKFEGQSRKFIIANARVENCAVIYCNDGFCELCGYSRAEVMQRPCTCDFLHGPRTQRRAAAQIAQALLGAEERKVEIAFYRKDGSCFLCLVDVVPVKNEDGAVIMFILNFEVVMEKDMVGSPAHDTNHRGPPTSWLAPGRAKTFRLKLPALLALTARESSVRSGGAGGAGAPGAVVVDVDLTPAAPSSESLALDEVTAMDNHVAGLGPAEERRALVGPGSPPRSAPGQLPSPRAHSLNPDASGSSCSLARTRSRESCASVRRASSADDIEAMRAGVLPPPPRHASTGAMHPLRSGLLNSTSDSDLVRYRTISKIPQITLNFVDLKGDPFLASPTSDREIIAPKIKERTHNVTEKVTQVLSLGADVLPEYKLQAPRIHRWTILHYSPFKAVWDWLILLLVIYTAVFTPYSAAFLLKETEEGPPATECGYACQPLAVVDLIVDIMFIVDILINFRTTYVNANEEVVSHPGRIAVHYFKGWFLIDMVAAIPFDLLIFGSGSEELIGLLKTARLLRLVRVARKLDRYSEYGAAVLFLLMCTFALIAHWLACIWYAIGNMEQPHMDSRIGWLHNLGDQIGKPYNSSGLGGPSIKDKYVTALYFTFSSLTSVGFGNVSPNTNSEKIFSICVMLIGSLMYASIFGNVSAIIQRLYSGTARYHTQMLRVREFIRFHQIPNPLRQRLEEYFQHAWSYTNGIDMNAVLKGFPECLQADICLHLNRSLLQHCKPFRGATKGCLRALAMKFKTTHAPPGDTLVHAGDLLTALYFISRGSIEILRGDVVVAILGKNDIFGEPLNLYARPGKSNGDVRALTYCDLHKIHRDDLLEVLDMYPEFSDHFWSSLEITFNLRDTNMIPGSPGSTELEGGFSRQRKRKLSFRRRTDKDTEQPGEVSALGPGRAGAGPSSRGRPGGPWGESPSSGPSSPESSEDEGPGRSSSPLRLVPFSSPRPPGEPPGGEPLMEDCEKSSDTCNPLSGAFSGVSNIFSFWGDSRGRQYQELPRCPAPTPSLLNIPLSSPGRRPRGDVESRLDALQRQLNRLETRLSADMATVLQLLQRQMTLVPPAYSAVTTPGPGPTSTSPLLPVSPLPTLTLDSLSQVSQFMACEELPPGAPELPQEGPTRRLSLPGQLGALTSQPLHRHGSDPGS

[15] = PBK level L2; at the given pH; single value or median; ref [1],[4],[5],[10],[11],[17],[26]; cited from earlier work
[16] = biological target: Voltage-dependent L-type Ca2+ channel (dihydropyridine site), CACNA1C (r) (Rattus norvegicus, UniProt P22002); assay type: binding; details: IPP screening at 10 uM; control nitrendipine
Chain of Voltage-dependent L-type Ca2+ channel (dihydropyridine site), CACNA1C (r) (P22002 whole entry): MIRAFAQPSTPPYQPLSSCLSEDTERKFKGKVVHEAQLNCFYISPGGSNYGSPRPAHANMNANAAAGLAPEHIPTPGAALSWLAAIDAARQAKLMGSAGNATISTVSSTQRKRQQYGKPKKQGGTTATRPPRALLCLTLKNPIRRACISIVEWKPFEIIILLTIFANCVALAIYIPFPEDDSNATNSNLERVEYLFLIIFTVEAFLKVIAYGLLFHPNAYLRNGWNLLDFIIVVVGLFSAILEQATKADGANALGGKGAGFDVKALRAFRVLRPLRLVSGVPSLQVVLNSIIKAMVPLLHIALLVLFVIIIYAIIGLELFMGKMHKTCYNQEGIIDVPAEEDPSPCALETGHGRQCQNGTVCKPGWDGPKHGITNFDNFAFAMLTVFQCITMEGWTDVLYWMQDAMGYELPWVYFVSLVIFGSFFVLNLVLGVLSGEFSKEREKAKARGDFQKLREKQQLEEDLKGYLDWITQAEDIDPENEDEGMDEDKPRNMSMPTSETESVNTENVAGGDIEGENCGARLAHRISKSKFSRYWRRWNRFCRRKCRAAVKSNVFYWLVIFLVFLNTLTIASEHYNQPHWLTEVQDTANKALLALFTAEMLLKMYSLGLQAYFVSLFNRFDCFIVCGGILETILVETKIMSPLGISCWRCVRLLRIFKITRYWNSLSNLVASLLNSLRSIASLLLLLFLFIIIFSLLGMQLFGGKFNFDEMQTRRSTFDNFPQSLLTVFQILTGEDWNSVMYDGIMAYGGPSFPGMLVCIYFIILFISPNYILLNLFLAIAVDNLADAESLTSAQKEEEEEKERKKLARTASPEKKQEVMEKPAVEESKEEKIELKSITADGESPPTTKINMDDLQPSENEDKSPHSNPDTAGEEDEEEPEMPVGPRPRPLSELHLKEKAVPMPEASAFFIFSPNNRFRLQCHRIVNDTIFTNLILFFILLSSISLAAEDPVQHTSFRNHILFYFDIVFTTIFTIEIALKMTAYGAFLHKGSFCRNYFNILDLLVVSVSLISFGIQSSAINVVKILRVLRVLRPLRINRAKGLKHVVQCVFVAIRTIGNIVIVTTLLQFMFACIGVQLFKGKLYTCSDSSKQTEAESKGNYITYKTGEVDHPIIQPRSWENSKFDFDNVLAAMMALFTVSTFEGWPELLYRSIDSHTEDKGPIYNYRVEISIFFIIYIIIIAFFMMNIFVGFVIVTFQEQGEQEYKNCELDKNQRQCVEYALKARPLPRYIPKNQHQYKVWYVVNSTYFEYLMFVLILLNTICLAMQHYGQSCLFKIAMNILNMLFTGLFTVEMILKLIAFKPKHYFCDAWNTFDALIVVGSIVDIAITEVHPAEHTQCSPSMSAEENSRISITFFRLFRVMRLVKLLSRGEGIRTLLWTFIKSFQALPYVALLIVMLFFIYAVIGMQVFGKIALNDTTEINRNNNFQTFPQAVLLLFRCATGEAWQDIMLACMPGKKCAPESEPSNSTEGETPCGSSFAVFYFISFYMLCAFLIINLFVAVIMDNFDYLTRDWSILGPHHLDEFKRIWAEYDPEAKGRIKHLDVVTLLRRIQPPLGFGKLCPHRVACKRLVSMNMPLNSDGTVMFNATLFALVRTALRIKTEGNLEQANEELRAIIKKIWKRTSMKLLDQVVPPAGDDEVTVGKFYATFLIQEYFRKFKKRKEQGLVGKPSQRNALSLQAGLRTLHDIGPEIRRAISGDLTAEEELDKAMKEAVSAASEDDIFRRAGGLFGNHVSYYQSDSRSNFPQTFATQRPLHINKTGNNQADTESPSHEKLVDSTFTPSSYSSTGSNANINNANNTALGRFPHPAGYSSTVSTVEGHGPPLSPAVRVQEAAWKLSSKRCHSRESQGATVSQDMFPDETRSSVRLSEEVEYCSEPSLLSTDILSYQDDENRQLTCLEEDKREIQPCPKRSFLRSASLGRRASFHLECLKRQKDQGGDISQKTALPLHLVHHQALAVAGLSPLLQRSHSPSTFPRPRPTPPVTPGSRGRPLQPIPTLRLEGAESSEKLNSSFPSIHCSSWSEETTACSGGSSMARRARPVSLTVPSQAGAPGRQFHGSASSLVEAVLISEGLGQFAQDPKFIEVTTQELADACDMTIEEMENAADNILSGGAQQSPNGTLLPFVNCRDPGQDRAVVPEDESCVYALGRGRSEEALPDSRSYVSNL

[17] = Assignment of risk classifications to benchmark chemical-exposure scenarios; details: for risk: from table S1
[18] = tested on: 63 targets with known safety liabilities; experiment: In vitro pharmacological profiling (IPP) panel, screening at 10 or 100 µM and dose response, minimum IC50/AC50; assay type: biochemical; details: lowest AC50 across IPP panel (systemic targets); cell_type -; read-out: ipp_lowest_ac50_systemic PoD
[19] = cited from earlier work
[20] = PBK level L2; single value or median; ref [2],[4],[6],[7],[8],[10],[11],[15],[18],[27],[34]; cited from earlier work
[21] = 100 uM, * denotes assay interference (2-Amino-6-chloro-4-nitrophenol, HC Red 3)

| Structure (SMILES) | pod_httr_bifrost PoD (HepG2 cells [1]) | podl_path_minbmd PoD (HepG2 cells [1]) | pod_httr_bifrost PoD (HepaRG cells) | podl_path_minbmd PoD (HepaRG cells) | Bioactivity Observations: cell stress panel (HepG2 cells [10]) | pod_cell_stress PoD (HepG2 cells [10]) | Intrinsic Liver Clearance [11] | pod_httr_bifrost PoD (MCF7 cells) | podl_path_minbmd PoD (MCF7 cells) | IPP screening %, Coactivator recruitment ([2]; 10 uM) | Specific binding ([3]; IPP screening at 10 uM) | Specific binding ([5]; IPP screening at 10 uM) | IPP screening %, Coactivator recruitment ([6]; 10 uM) | Specific binding ([7]; IPP screening at 10 uM) | IPP screening %, Coactivator recruitment ([9]; 10 uM) | IPP screening %, Specific binding (Tubulin (r); 10 uM) | Specific binding ([12]; IPP screening at 10 uM) | Specific binding ([13]; IPP screening at 10 uM) | IPP screening %, Specific binding ([14]; 10 uM) | other results |
| --- | --- | --- | --- | --- | --- | --- | --- | --- | --- | --- | --- | --- | --- | --- | --- | --- | --- | --- | --- | --- |
| COC(=O)[C@H](Cc1ccccc1)NC(=O)[C@@H](N)CC(=O)O [Aspartame, Methyl L-alpha-aspartyl-L-phenylalaninate] (H-Asp-Phe-OMe) | 1509.3 µM | 2500 µM | 853.753 µM | 2500 µM | the CSP shows some small effects on PGC1alpha/Nrf2 and the ECAR (seahorse) | 536.875 µM | 400.2 L/h | 423.587 µM | 2500 µM |  |  |  |  |  |  |  |  |  |  | IPP screening %, Coactivator recruitment [2, 21]: 2.0%; Specific binding ([3]; IPP screening at 100 uM): 2.5%; IPP screening %, Coactivator recruitment [4, 21]: -1.0%; Specific binding ([5]; IPP screening at 100 uM): 24.0%; IPP screening %, Coactivator recruitment ([6]; 100 uM): -11.9%; Specific binding ([7]; IPP screening at 100 uM): 7.4%; IPP screening %, Coactivator recruitment [8, 21]: 0.0%; IPP screening %, Coactivator recruitment ([9]; 100 uM): 15.7%; PoD (NOAEL) (rat; 38 days, developmental neurotoxicity study): 1614 mg/kg bw/day; IPP screening %, Specific binding (Tubulin (r); 100 uM): -13.0%; Specific binding ([12]; IPP screening at 100 uM): 3.9%; Specific binding ([13]; IPP screening at 100 uM): 0.3%; IPP screening %, Specific binding ([14]; 100 uM): 1.5% |
| O=[N+]([O-])c1cc(C(F)(F)F)c(Cl)c([N+](=O)[O-])c1Nc1ncc(C(F)(F)F)cc1Cl [Fluazinam, 3-Chloro-N-[3-chloro-2,6-dinitro-4-(trifluoromethyl)phenyl]-5-(trifluoromethyl)pyridin-2-amine] | 0.03634 µM | 0.699 µM | 0.0222 µM | 0.4338 µM | The seahorse assays within the cell stress panel do report activity and with a very large magnitude of change in the OCR biomarker | 0.6023 µM |  | 0.1303 µM | 0.4999 µM | 2.0% | -3.7% | 1.2% | 111.2% | -31.4% | -8.8% | 9.0% | 19.6% | 14.9% | 16.2% | IPP screening %, Coactivator recruitment ([4]; 10 uM): 46.0%; Aqueous Solubility [15]: 0.95 µg/mL; Specific binding [16]: 99.9%; Risk Classification ([17]; Oral 0.01 mg/kg bw/day): Low risk; Risk Classification ([17]; Oral 32% of 0.01 mg/kg bw/day): Low risk; risk ([17]; Oral, 32% ADI 0.01 mg/kg bw/day, Food residue, Exp1): 0; risk ([17]; Oral, ADI 0.01 mg/kg bw/day, Food residue, Exp2): 0; IPP screening %, Coactivator recruitment ([8]; 10 uM): -4.0%; PoD (NOAEL) (rat; 104 weeks): 0.38 mg/kg bw/day; AC50 [18]: 430 nM |
| CCCCOC(=O)c1ccc(O)cc1 [Butylparaben, Butyl 4-hydroxybenzoate] |  |  |  |  |  | 4.378 µM | 799.2 L/h |  |  | 2.0% | 1.5% | -5.2% | 6.9% | 12.4% | 3.1% | 8.0% | 23.9% | 5.4% | -13.5% | Risk Classification ([17]; Dermal […] in Body Lotion): Low risk; risk ([17]; Dermal, […] (regulation says limit is […] as acid), Body lotion, Exp1): 0; PoD (LOAEL) (rat; subchronic - 8 weeks, ref Oishi): 10 mg/kg bw/day; BMDL5 ([19]; ref SCCS): 24 mg/kg/day; Real NOAEL ([19]; ref not given): 1000 mg/kg/day; alternative lowest PoD ([19]; studies stated to be flawed, ref Oishi): 14.4 mg/kg/day; Fup [20]: 5.64% |
